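Protocol summary: plate cells (96-well), add compound at 5 concentrations, incubate 48 h, interpolate endpoints linearly. Abbreviation: GI50, concentration required for 50% inhibition of growth. At the TGI there is no net growth.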
Columns and labels:
Test in all cases: NCI tumour cell line growth inhibition, 48 h
[1] = system: NCI-H23 lung
[2] = system: HCT-15 colon
[3] = system: SK-MEL-2 melanoma
[4] = system: HT29 colon
[5] = system: SK-OV-3 ovarian
[6] = system: K-562 leukemia
[7] = system: HOP-62 NSCLC
[8] = system: OVCAR-3 ovarian
[9] = system: SNB-75 CNS
[10] = system: LOX IMVI melanoma

SMILES | GI50 [1] [µM] | TGI [1] [µM] | GI50 [2] [µM] | TGI [2] [µM] | GI50 [3] [µM] | TGI [3] [µM] | GI50 [4] [µM] | TGI [4] [µM] | GI50 [5] [µM] | TGI [5] [µM] | GI50 [6] [µM] | TGI [6] [µM] | GI50 [7] [µM] | TGI [7] [µM] | GI50 [8] [µM] | TGI [8] [µM] | GI50 [9] [µM] | TGI [9] [µM] | GI50 [10] [µM] | TGI [10] [µM]
CCN1CCN(C(=O)[C@]23CC[C@@H](C)[C@H](C)[C@@H]2C2=CC[C@@H]4[C@@]5(C)C/C(=C/c6cccnc6)C(=O)C(C)(C)[C@@H]5CC[C@@]4(C)[C@]2(C)CC3)CC1 | 2.13 | 5.91 | 1.66 | 3.26 | 2.12 | 4.76 | 1.93 | 5.36 | 2.7 | 9.2 | 2.63 | 7.44 | 2.43 | 5.86 | 1.65 | 3.19 | 1.57 | 8.91 | 1.58 | 3.06
CC1(CCCC2(C)CCNC2=O)OCCO1 (stereo not given) |  | > 10 |  | > 10 |  | > 10 |  | > 10 |  | > 10 |  | > 10 |  | > 10 |  | > 10 |  | > 10 |  | > 10
CC(C)(C)c1cc(C(O)(C(=O)O)C(=O)O)cc(C(C)(C)C)c1O |  | > 100 |  | > 100 |  | > 100 |  | > 100 |  | > 100 |  | > 100 |  | > 100 |  | > 100 |  | > 100 |  | > 100
COc1cc2c(cc1OCCCC(=O)Nc1cc(C(=O)Nc3cc(C(=O)Nc4cc(C(=O)NCCCN(C)C)n(C)c4)n(C)c3)n(C)c1)N=C[C@@H]1CCCN1C2=O |  | 4.4 |  | 3.86 |  | 6.79 |  | 4.1 |  | 28.4 |  | > 100 |  | 9.83 |  | 3.62 |  | 9.95 |  | 2.26
Cc1cc(NS(=O)(=O)c2ccc(NC(=O)c3ccc4nc5ccccc5c(Nc5ccc(S(=O)(=O)N=C(N)N)cc5)c4c3)cc2)no1 |  | 38.6 |  | 29.3 |  | 33.4 |  | 38.2 |  | 41.6 |  | 27.7 |  | 35.8 |  | 34.6 |  | 51.9 |  | 23.1
NNC(=O)CC(=O)Nc1ccc(Cl)cc1 |  | > 100 |  | > 100 |  | > 100 |  | > 100 |  | > 100 |  | > 100 |  | > 100 |  | > 100 |  | > 100 |  | > 100
O=C1NN=C(c2ccc(Cl)cc2)CC1C1C(=O)N(c2ccccc2)N=C1c1ccccc1 (stereo not given) |  | 62.8 |  | > 100 |  | 78.7 |  | > 100 |  | > 100 |  | > 100 |  | > 100 |  | 72.9 |  | > 100 |  | 45.9
O=C1Cc2c(-c3ccc(Cl)cc3)cc(-c3ccccc3)nc2-c2ccccc2N1 |  | 33.8 |  | > 44.8 |  | 97.7 |  | > 42.8 |  | 18.8 |  | > 100 |  | 53.3 |  | 27.1 |  | 14.2 |  | 22.8
COc1ccc2c(c1)OCC1(O)Cc3ccccc3OC21 (stereo not given) |  | > 100 |  | > 100 |  | > 100 |  | > 100 |  | > 100 |  | > 100 |  | > 100 |  | > 100 |  | > 100 |  | > 100
O=S(=O)(c1ccccc1)n1c(C(O)c2ccncc2)cc2ccccc21 (stereo not given) |  | > 100 |  | > 100 |  | > 100 |  | > 100 |  | > 100 |  | > 100 |  | > 100 |  | > 100 |  | > 100 |  | > 100
CC/C(Cl)=N\OC(=O)Nc1ccc(OC)cc1 |  | 38.6 |  | 3.12 |  | 33 |  | 33.8 |  | 31.7 |  | > 100 |  | 30.3 |  | 10.7 |  | 19.3 |  | 4.89
O=C(Nc1ccccc1)c1cc2c(cc1Cl)Sc1nccn1S2(=O)=O |  | 53.8 |  | > 75.3 |  | 58.3 |  | > 75.6 |  | > 100 |  | > 100 |  | > 59.8 |  | 59.3 |  | 63.7 |  | 39
CCOC(=O)C(=[N+]=[N-])C(=O)C[N+]12CCN(CC1)CC2 |  | > 100 |  | > 100 |  | > 100 |  | > 100 |  | > 100 |  | > 100 |  | > 100 |  | > 100 |  | > 100 |  | > 100
CCCC(Sc1nc(N)nc2nc[nH]c12)C(=O)O (stereo not given) |  | > 100 |  | > 100 |  | > 100 |  | > 100 |  | > 100 |  | > 100 |  | > 100 |  | > 100 |  | > 100 |  | > 100
CCSSCS(C)(=O)=O |  | 98 |  | 32.9 |  | > 100 |  | > 100 |  | > 100 |  | 27.2 |  | > 100 |  | 99.2 |  | 72.6 |  | > 100
c1ccc2c(c1)c1c(n2CCOCCN2CCCCC2)CCCC1 |  | 37.4 |  | 27.7 |  | 21.1 |  | 24.6 |  | 34.9 |  | 26.7 |  | 29 |  | 21.7 |  | 26.7 |  | 28.3
CC1(C)CCC[C@]2(C)[C@@H]1CC[C@@]13O[C@@H]1C1=C(CO)C(=O)O[C@]14O[C@@H]4[C@@H]23 |  | 28.4 |  | 37.4 |  | 31.6 |  | 26.2 |  | 31.7 |  | > 55.2 |  | 34.6 |  | 27.1 |  | 30.6 |  | 24
O=C(O)CC(NC(=O)Nc1ccc([N+](=O)[O-])cc1)C(=O)Nc1ccc([N+](=O)[O-])cc1 (stereo not given) |  | > 100 |  | > 100 |  | > 100 |  | > 100 |  | > 100 |  | > 100 |  | > 100 |  | > 100 |  | > 100 |  | > 100
CC1(C)C2CCC1(CS(=O)(=O)Nc1ccccc1)C(=O)C2 (stereo not given) |  | > 100 |  | > 100 |  | > 100 |  | > 100 |  | > 100 |  | > 100 |  | > 100 |  | > 100 |  | > 100 |  | > 100
